Measurements reported in patent publication US20130203734A1, “ANTI-INFLAMMATORY AGENTS” (priority 2010, published 2013).

Tests used:
[1] = test system: MCP-1 induced migration of THP-1 cells; conditions: cited from earlier work
[2] = test system: endotoxin-stimulated TNF-alpha levels; experiment: Murine sub-lethal endotoxemia model, serum TNF-α by ELISA; assay type: in vivo, mice
Experimental: FIG. 2 is a graph showing the results of a murine sub-lethal endotoxemia test.
The anti-inflammatory efficacy of an exemplar compound according to the present invention was tested using the murine sub-lethal endotoxemia model.
Briefly, the method is as follows. Female CD1 mice (28-30g, ˜7 weeks of age) were dosed with their respective treatment in sterile filtered 1% CMC by oral gavage in a dose volume of 10 ml/kg one hour prior to an endotoxin (LPS) challenge. The endotoxin challenge was injected by the intraperitoneal route containing 675,000 Endotoxin Units of LPS (E. coli strain 0111:B4 (Code L4130)) in endotoxin free PBS. Mice were left for two hours and then exsanguinated under terminal anaesthesia and blood was taken. Serum was prepared from this terminal bleed and aliquoted and stored at −20° C. Serum TNF-α levels were measured by ELISA per manufacturers instructions (R and D Systems).
Eight animals were treated in each group, and the data for the animal with the highest and lowest TNF-α level in each group were eliminated, and the mean and standard error reported for the remaining six animals.

[3] = test system: MCP-1 induced migration of THP-1 cells; experiment: Inhibition of MCP-1 induced leukocyte migration (transwell, THP-1 cells); assay type: cell-based; conditions: Homo sapiens, MCP-1 25 ng/ml, 2 hours 37° C., read-out: ED50 (concentration required to reduce MCP-1-induced migration by 50%)
Experimental: A. Inhibition of MCP-1 Induced Leukocyte Migration
In principle, this assay consists of two chambers separated by a porous membrane. The chemoattractant is placed in the lower compartment and the cells are placed in the upper compartment. After incubation for a period at 37° C. the cells move towards the chemoattractant, and the number of cells in the lower compartment is proportional to the chemoattractant activity (relative to a series of controls).
This assay can be used with a range of different leukocyte populations. For example, freshly prepared human peripheral blood leukocytes may used. Alternatively, leukocyte subsets may be prepared, including polymorphonuclear cells or lymphocytes or monocytes using methods well known to those skilled in the art such as density gradient centrifugation or magnetic bead separations. Alternatively, immortal cell lines which have been extensively validated as models of human peripheral blood leukocytes may be used, including, but not limited to THP-1 cells as a model of monocytes or Jurkat cells as model of naive T cells.
The transwell migration systems are manufactured by Neuroprobe, Gaithersburg, Md., USA.
The plates used are ChemoTx plates (Neuroprobe 101-8) and 30 μl clear plates (Neuroprobe MP30).
Geys' Balanced Salt Solution is purchased from Sigma (Sigma G-9779).
Fatty acid-free BSA is purchased from Sigma (Sigma A-8806). […]

[4] = test system: chemokine-induced migration; conditions: cited from earlier work
[5] = 37° C.; cited from earlier work
[6] = cited from earlier work

Row | Compound | melting point | also measured
1 | CCCCCCCCCCC(C)(C)C(=O)NC1CCCCNC1=O (stereo not drawn) [2′2′-dimethyldodecenanoyl-3-aminocaprolactam] |  | potency as a BSCI relative to dodecanoyl-3-aminocaprolactam ([1]; MCP-1 induced THP-1 cell migration assay): 10 fold
2 | CCCCCCCCCC(C)(C)CC(=O)NC1CCCCNC1=O (stereo not drawn) [3′3′-dimethyldodecanoyl-3-aminocaprolactam] |  | potency as a BSCI relative to the linear alkyl analogs [1]: no more potent
3 | O=C1NCCCC[C@@H]1NC(=O)C12CC3CC(CC(C3)C1)C2 [(S)-3-(adamantane-1-carbonyl)aminocaprolactam] |  | anti-inflammatory effect in vivo compared with the compound of Example 4 ([2]; 1 mg/kg p.o.): similar
4 | O=C1NCCC[C@@H]1NS(=O)(=O)c1ccc(F)cc1 [Example 1, (S)-4-Fluoro-N-(2-oxopiperidin-3-yl)benzenesulfonamide] | 153 to 156 °C | 
5 | O=C1NCCC[C@@H]1NS(=O)(=O)c1cccc(F)c1 [Example 2, (S)-3-Fluoro-N-(2-oxopiperidin-3-yl)benzenesulfonamide] | 159 to 160 °C | 
6 | O=C1NCCC[C@@H]1NS(=O)(=O)c1ccccc1F [Example 3, (S)-2-Fluoro-N-(2-oxopiperidin-3-yl)benzenesulfonamide] | 180 to 183 °C | 
7 | O=C1NCCC[C@@H]1NS(=O)(=O)c1ccc(C(F)(F)F)cc1 [Example 4, (S)—N-(2-Oxopiperidin-3-yl)-4-(trifluoromethyl)-benzenesulfonamide] |  | inhibition of endotoxin-stimulated TNF-alpha levels ([2]; female CD1 mice, single dose 10 mg/kg p.o. one hour prior to LPS, serum 2 hours after LPS): 60-70%
8 | O=C1NCCC[C@@H]1NS(=O)(=O)c1cccc(C(F)(F)F)c1 [Example 5, (S)—N-(2-Oxopiperidin-3-yl)-3-(trifluoromethyl)benzenesulfonamide] | 158 to 160 °C | 
9 | O=C1NCCC[C@@H]1NS(=O)(=O)c1ccccc1C(F)(F)F [Example 6, (S)—N-(2-oxopiperidin-3-yl)-2-(trifluoromethyl)benzenesulfonamide] | 161 to 163 °C | 
10 | O=C1NCCC[C@@H]1NS(=O)(=O)c1ccc(F)cc1F [Example 7, (S)-2,4-difluoro-N-(2-oxopiperidin-3-yl)benzenesulfonamide] | 162 to 163 °C | 
11 | O=C1NCCC[C@@H]1NS(=O)(=O)c1cc(F)ccc1F [Example 8, (S)-2,5-difluoro-N-(2-oxopiperidin-3-yl)benzenesulfonamide] | 183 to 185 °C | 
12 | O=C1NCCC[C@@H]1NS(=O)(=O)c1c(F)cccc1F [Example 9, (S)-2,6-difluoro-N-(2-oxopiperidin-3-yl)benzenesulfonamide] | 152 to 153 °C | 
13 | O=C1NCCC[C@@H]1NS(=O)(=O)c1ccc(F)c(F)c1 [Example 10, (S)-3,4-difluoro-N-(2-oxopiperidin-3-yl)benzenesulfonamide] | 153 to 155 °C | 
14 | O=C1NCCC[C@@H]1NS(=O)(=O)c1cc(F)cc(F)c1 [Example 11, (S)-3,5-difluoro-N-(2-oxopiperidin-3-yl)benzenesulfonamide] | 170 to 174 °C | 
15 | CC(C)(C)c1ccc(S(=O)(=O)N[C@H]2CCCNC2=O)cc1 [Example 16, (S)-3-(4′-tert-Butylbenzenesulfonylamino)-tetrahydropyridin-2-one] | 155 to 156 °C | 
16 | CCCCCCCCc1ccc(S(=O)(=O)N[C@H]2CCCNC2=O)cc1 [Example 19, (S)-3-(4′-Octylbenzenesulfonylamino)-tetrahydropyridin-2-one] | 98 to 99 °C | 
17 | Cc1ccc(S(=O)(=O)NC2CCCNC2=O)cc1 (stereo not drawn) [Reference Example 1, 3-(4′-Methylbenzenesulfonylamino)tetrahydropyridin-2-one] |  | EC50 [3]: ≤ 100 nM
18 | Cc1ccc(S(=O)(=O)NC2CCCCNC2=O)cc1 (stereo not drawn) [Reference Example 2, 3-(4′-Methylbenzenesulfonylamino)azepan-2-one] |  | EC50 [3]: ≤ 100 nM
19 | CCCCCCCCCC=CC(=O)NC1CCCCNC1=O (stereo not drawn) [dodec-2′,3′-enoyl-3-aminocaprolactam] |  | potency as BSCI relative to compounds with corresponding saturated alkyl tail groups [4]: markedly lower potency
20 | O=C1CCC(N2C(=O)c3ccccc3C2=O)C(=O)N1 (stereo not drawn) [thalidomide] |  | anti-inflammatory effect on TNF-α levels in vivo compared with the compound of Example 4 ([2]; thalidomide 10 mg/kg p.o., positive control, maximally effective dose): quantitatively similar
21 | (S)-3-(undec-10-enoyl)-tetrahydropyridin-2-one |  | stability in human serum (completely stable for) [5]: at least 7 days; potency compared with the parental molecule (S)-3-(undec-10-enoyl)-aminoglutarimide [4]: considerably reduced potency
22 | c(DCys-DGln-DIle-DTrp-DLys-DGIn-DLys-DPro-DAsp-DLeu-DCys)-NH2 [NR58-3.14.3] |  | half-life of clearance from blood plasma ([6]; after intravenous injection): less than 30 minutes; oral bioavailability ([6]; in vivo, po): not orally bioavailable
